In ChEMBL document CHEMBL5390223, “Strategies for the Discovery of Oxazolidinone Antibacterial Agents: Development and Future Perspectives” (J Med Chem, 2023):
In brackets after ≈: the same amount, converted by molar mass.

Legend:
Staphylococcus aureus [1] = assay: Antibacterial activity against Staphylococcus aureus HG001 assessed as reduction in bacterial cell growth incubated for 18 hrs by two-fold serial dilution method; format: functional
Pseudomonas aeruginosa = assay: Antibacterial activity against Pseudomonas aeruginosa PAO1 assessed as bacterial growth inhibition incubated for 18 hrs by two-fold serial dilution method; format: functional
Enterococcus = assay: Antibacterial activity against vancomycin-resistant Enterococci assessed as reduction in bacterial cell growth incubated for 24 hrs by CLSI-microbroth dilution method; format: functional
Moraxella catarrhalis [2] = assay: Antibacterial activity against Moraxella catarrhalis ATCC 8176 assessed as inhibition in bacterial growth measured after 24 hrs by broth microdilution method; format: functional
Moraxella catarrhalis [3] = assay: Antibacterial activity against Moraxella catarrhalis assessed as inhibition of bacterial growth measured after 24 hrs by broth microdilution method; format: functional
Escherichia coli [4] = assay: Antibacterial activity against Escherichia coli assessed as inhibition of bacterial cell growth measured after 24 hrs by broth microdilution method; format: functional
Haemophilus influenzae = assay: Antibacterial activity against Haemophilus influenzae assessed as reduction in bacterial cell growth measured after 24 hrs by broth microdilution method; format: functional
Streptococcus pneumoniae [5] = assay: Antibacterial activity against Streptococcus pneumoniae assessed as reduction in bacterial cell growth measured after 24 hrs by broth microdilution method; format: functional
Staphylococcus aureus [6] = assay: Antibacterial activity against methicillin-resistant Staphylococcus aureus […] assessed as inhibition of bacterial growth incubated for 24 hrs by microplate reader assay; format: functional
Enterococcus faecalis [7] = assay: Antibacterial activity against vancomycin-resistant Enterococcus faecalis ATCC 51299 assessed as reduction in bacterial cell growth incubated for 24 hrs by broth microdilution method; format: functional
Staphylococcus aureus [8] = assay: Antibacterial activity against methicillin-susceptible Staphylococcus aureus infected in Swiss albino mouse assessed as reduction in bacterial growth by measuring effective dose administered orally 2 to 4 times a day for 2 consecutive days; format: functional; settings: route po
Enterococcus faecalis [9] = assay: Antibacterial activity against vancomycin-resistant Enterococcus faecalis […] infected in Swiss albino mouse assessed as reduction in bacterial growth by measuring effective dose administered orally 2 to 4 times a day for 2 consecutive days; format: functional; settings: route po
Staphylococcus aureus [10] = assay: Antibacterial activity against Staphylococcus aureus ATCC 25923 assessed as reduction in microbial growth incubated for 24 hrs by micro-plate reader assay; format: functional
Escherichia coli [11] = assay: Antibacterial activity against Escherichia coli Delta tolC mutant assessed as bacterial growth inhibition incubated for 24 hrs by broth microdilution method; format: functional
[12] = tested on: Mycobacterium tuberculosis; assay: Antimycobacterial activity against Mycobacterium tuberculosis H37Rv assessed as reduction in bacterial cell growth incubated for 6 days by Alamar blue staining based assay; format: functional; settings: 144 h, time 6 day
Staphylococcus aureus [13] = assay: Antimicrobial activity against methicillin-resistant Staphylococcus aureus assessed as microbial growth inhibition; format: functional
Staphylococcus aureus [14] = assay: Antibacterial activity against methicillin-susceptible Staphylococcus aureus assessed as reduction in bacterial cell growth; format: functional
Enterococcus faecium [15] = assay: Antimicrobial activity against Vancomycin-resistant Enterococcus faecium ATCC 51559 assessed as growth inhibition after 14 to 16 hrs by CLSI based broth dilution method; format: functional; settings: time 14-16 hrs
Enterococcus faecium [16] = assay: Antibacterial activity against vancomycin-resistant Enterococcus faecium infected in mouse assessed as reduction in bacterial growth by measuring effective dose administered orally; format: functional; settings: route po
Staphylococcus aureus [17] = assay: Antibacterial activity against methicillin-resistant Staphylococcus aureus infected in mouse assessed as reduction in bacterial growth by measuring effective dose administered orally; format: functional; settings: route po
Staphylococcus aureus [18] = assay: Antibacterial activity against methicillin-susceptible Staphylococcus aureus infected in mouse assessed as reduction in bacterial growth by measuring effective dose administered orally; format: functional; settings: route po
[19] = Oral bioavailability in rat at 2 mg/kg; format: ADME, organism-based; settings: in vivo
[20] = Plasma protein binding in rat plasma at 10 mg/kg by LC-MS/MS analysis; format: ADME, organism-based; settings: read-out: PPB (converted)
Staphylococcus aureus [21] = assay: Antibacterial activity against methicillin-resistant Staphylococcus aureus ATCC 33592 assessed as reduction in bacterial cell growth incubated for 18 hrs by microplate reader assay; format: functional
Staphylococcus aureus [22] = assay: Antibacterial activity against methicillin-susceptible Staphylococcus aureus […] assessed as reduction in bacterial cell growth incubated for 18 hrs by microplate reader assay; format: functional
Enterococcus faecium [23] = assay: Antimicrobial activity against Vancomycin-resistant Enterococcus faecium ATCC 700221 assessed as growth inhibition after 14 to 16 hrs by CLSI based broth dilution method; format: functional; settings: time 14-16 hrs
Staphylococcus aureus [24] = assay: Antibacterial activity against Staphylococcus aureus ATCC 25923 assessed as reduction in bacterial growth incubated for 18 to 24 hrs by microbroth dilution method; format: functional; settings: time 18-24 hrs
Enterococcus faecium [25] = assay: Antibacterial activity against Enterococcus faecium ATCC 19434 assessed as reduction in microbial growth after 24 hrs by two-fold serial dilution method; format: functional
Streptococcus pneumoniae [26] = assay: Antibacterial activity against Streptococcus pneumoniae assessed as reduction in bacterial cell growth inhibition by broth microdilution method; format: functional
[27] = molecular target: T1, Amine oxidase [flavin-containing] B (Homo sapiens, UniProt P27338); assay: Inhibition of MAO-B (unknown origin)
T1 sequence (P27338 whole entry): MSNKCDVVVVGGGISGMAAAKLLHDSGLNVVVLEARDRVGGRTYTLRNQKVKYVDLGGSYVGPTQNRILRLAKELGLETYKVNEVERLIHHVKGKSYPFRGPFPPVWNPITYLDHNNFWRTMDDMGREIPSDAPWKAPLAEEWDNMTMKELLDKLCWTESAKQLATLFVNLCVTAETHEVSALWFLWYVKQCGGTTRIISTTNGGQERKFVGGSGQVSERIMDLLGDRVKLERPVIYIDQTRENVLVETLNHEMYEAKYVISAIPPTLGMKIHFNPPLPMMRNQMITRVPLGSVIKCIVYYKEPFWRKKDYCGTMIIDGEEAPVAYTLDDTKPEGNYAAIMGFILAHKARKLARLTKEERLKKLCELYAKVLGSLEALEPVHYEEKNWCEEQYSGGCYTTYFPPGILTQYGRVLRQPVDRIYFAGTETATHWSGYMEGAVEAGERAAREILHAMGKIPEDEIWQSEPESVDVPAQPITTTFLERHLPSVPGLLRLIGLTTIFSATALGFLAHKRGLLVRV

Q: Which results are given for `CC(=O)NC[C@H]1CN(c2ccc(N3CCN(C(=O)OCn4cc(CNC(=O)C(CCCCNC(=O)c5cccc(O)c5O)NC(=O)c5cccc(O)c5O)nn4)CC3)c(F)c2)C(=O)O1` (stereo partly drawn)?
A: MIC (Staphylococcus aureus [1]): 64 µM (≈ 57 µg/mL); MIC (Pseudomonas aeruginosa): > 64 µM

Q: For `O=C(NCC(=O)N1CCN(c2ccc(N3C[C@H](Cn4ccnn4)OC3=O)cc2F)CC1)c1ccc([N+](=O)[O-])o1`, which MIC (Enterococcus) is on record?
A: The MIC was 0.06 µg/mL (≈ 0.111 µM).

Q: What about the MIC (Moraxella catarrhalis [2]) of the same molecule?
A: The MIC was 0.25 µg/mL (≈ 0.461 µM).

Q: And the MIC (Moraxella catarrhalis [3])?
A: The MIC was 0.06 µg/mL (≈ 0.111 µM).

Q: What about the MIC (Escherichia coli [4]) of the same molecule?
A: The MIC was 0.06 µg/mL (≈ 0.111 µM).

Q: And the MIC (Haemophilus influenzae)?
A: The MIC was 0.06 µg/mL (≈ 0.111 µM).

Q: And the MIC (Streptococcus pneumoniae [5])?
A: Its MIC is 0.06 µg/mL (≈ 0.111 µM).

Q: With `CC(=O)NC[C@H]1CN(c2ccc(N3CCN(C(=O)CN(CCCNC(=O)c4cccc(O)c4O)C(=O)c4cccc(O)c4O)CC3)c(F)c2)C(=O)O1` as the molecule, how does the MIC (Staphylococcus aureus [1]) read?
A: Its MIC is 64 µM (≈ 46.3 µg/mL).

Q: What about the MIC (Pseudomonas aeruginosa) of the same molecule?
A: The MIC was greater than 64 µM.

Q: For `CC(=O)NC[C@H]1CN(c2ccc(N3CCN(Cc4ccc([N+](=O)[O-])o4)CC3)c(F)c2)C(=O)O1` [RANBEZOLID], which MIC (Staphylococcus aureus [6]) is on record?
A: The MIC was 0.125 µg/mL (≈ 0.271 µM).

Q: What about the MIC (Enterococcus faecalis [7]) of the same molecule?
A: The MIC was 0.125 µg/mL (≈ 0.271 µM).

Q: For `CC(=O)NC[C@H]1CN(c2ccc(N3CCN(C(=O)COCCOCCn4cc(CNC(=O)C(CCCCNC(=O)c5cccc(O)c5O)NC(=O)c5cccc(O)c5O)nn4)CC3)c(F)c2)C(=O)O1` (stereo partly drawn), which MIC (Staphylococcus aureus [1]) is on record?
A: The MIC was 64 µM (≈ 61.6 µg/mL).

Q: And the MIC (Pseudomonas aeruginosa)?
A: The MIC was greater than 64 µM.

Q: Which results are given for `CC(=O)NC[C@H]1CN(c2ccc(-c3cnc(-n4cncn4)nc3)c(F)c2)C(=O)O1`?
A: ED50 (Staphylococcus aureus [8]): 4.2 mg/kg; ED50 (Enterococcus faecalis [9]): 8.6 mg/kg; MIC (Staphylococcus aureus [10]): 0.125 µg/mL

Q: Which MIC (Staphylococcus aureus [1]) does the source give for `CC(=O)NC[C@H]1CN(c2ccc(N3CCN(C(=O)OCn4cc(CNC(=O)C(CNC(=O)C(CNC(=O)CNC(=O)c5cccc(O)c5O)NC(=O)c5cccc(O)c5O)NC(=O)c5cccc(O)c5O)nn4)CC3)c(F)c2)C(=O)O1` (stereo partly drawn) here?
A: The MIC was 16 µM (≈ 18 µg/mL).

Q: What about the MIC (Pseudomonas aeruginosa) of the same molecule?
A: The MIC was greater than 64 µM.

Q: With `CSCC[C@H](NC(=O)[C@H](Cc1ccc(O)cc1)NC(=O)[C@H](CCCCN)NC(=O)[C@@H]1CCCN1C(=O)[C@H](CO)NC(=O)[C@H](Cc1c[nH]c2ccccc12)NCC(=O)N(CCCCNC(=O)c1cccc(O)c1O)C(=O)c1cccc(O)c1O)C(=O)NCC(=O)N1CCN(c2ccc(N3C[C@H](CNC(C)=O)OC3=O)cc2F)CC1` as the molecule, how does the MIC (Escherichia coli [11]) read?
A: The MIC was 1 µM (≈ 1.59 µg/mL).

Q: With `CC(=O)NC[C@H]1CN(c2ccc(-c3ccc(CO[C@@H]4COc5nc([N+](=O)[O-])cn5C4)nc3)c(F)c2)C(=O)O1` as the molecule, how does the MIC [12] read?
A: The MIC was 0.15 µg/mL (≈ 0.285 µM).

Q: For `CC(=O)NC[C@H]1CN(c2ccc(N3CCN(C(=O)CO)CC3)c(F)c2)C(=O)O1` [EPEREZOLID], which MIC (Staphylococcus aureus [13]) is on record?
A: The MIC was 1 µg/mL (≈ 2.54 µM).

Q: What about the MIC (Staphylococcus aureus [14]) of the same molecule?
A: Its MIC is 1 µg/mL (≈ 2.54 µM).

Q: What about the MIC (Enterococcus faecium [15]) of the same molecule?
A: Its MIC is 1 µg/mL (≈ 2.54 µM).

Q: With `Cn1nnc(-c2ccc(-c3ccc(N4C[C@H](CO)OC4=O)cc3F)cn2)n1` [TEDIZOLID] as the molecule, how does the ED50 (Enterococcus faecium [16]) read?
A: The ED50 was 8.8 mg/kg.

Q: What about the ED50 (Staphylococcus aureus [17]) of the same molecule?
A: Its ED50 is 8.8 mg/kg.

Q: And the ED50 (Staphylococcus aureus [18])?
A: The ED50 was 8.8 mg/kg.

Q: What about the bioavailability [19] of the same molecule?
A: The bioavailability was 91%.

Q: What about the fraction unbound [20] of the same molecule?
A: Its fraction unbound is 0.3.

Q: For `O=C1O[C@@H](Cn2ccnn2)CN1c1ccc(N2CCOCC2)c(F)c1`, which MIC (Staphylococcus aureus [21]) is on record?
A: Its MIC is 0.5 µg/mL (≈ 1.44 µM).

Q: And the MIC (Staphylococcus aureus [22])?
A: The MIC was 0.5 µg/mL (≈ 1.44 µM).

Q: And the MIC (Enterococcus faecium [23])?
A: Its MIC is 0.5 µg/mL (≈ 1.44 µM).

Q: For `CC(=O)NC[C@H]1CN(c2ccc(N3CCN(C(=O)COCCOCCn4cc(CNC(=O)C(CNC(=O)C(CNC(=O)CNC(=O)c5cccc(O)c5O)NC(=O)c5cccc(O)c5O)NC(=O)c5cccc(O)c5O)nn4)CC3)c(F)c2)C(=O)O1` (stereo partly drawn), which MIC (Staphylococcus aureus [1]) is on record?
A: Its MIC is 64 µM (≈ 76.8 µg/mL).

Q: And the MIC (Pseudomonas aeruginosa)?
A: The MIC was greater than 64 µM.

Q: With `O=C1C=CN(c2c(F)cc(N3C[C@H](CNc4ccon4)OC3=O)c(F)c2F)CC1` [CONTEZOLID] as the molecule, how does the MIC (Staphylococcus aureus [24]) read?
A: Its MIC is 0.06 µg/mL (≈ 0.147 µM).

Q: What about the MIC (Enterococcus faecium [25]) of the same molecule?
A: The MIC was 0.06 µg/mL.

Q: And the MIC (Streptococcus pneumoniae [26])?
A: The MIC was 0.06 µg/mL (≈ 0.147 µM).

Q: What about the IC50 [27] of the same molecule?
A: The IC50 was 30.1 µM.
